This passage reports IC50 and Ki results from ChEMBL document CHEMBL1909046, “DrugMatrix in vitro pharmacology data”.

One assay addresses Melanocortin receptor 5 (Homo sapiens, UniProt P33032). It is filed as cell membranes, HEK293, Membrane. To be noted: hek293.
The target of assay [1] is Tyrosine-protein kinase Fyn (Homo sapiens, UniProt P06241). The experiment in a line: biochemical. It is filed as cell-based, Insect cells.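 Also: enzymatic inhibition of Fyn kinase activity measured with Poly(Glu:Tyr) as the phosphorylation substrate; in other assays of this panel Not Active means under 50% inhibition at 10 µM.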
Assay [2] in a line: DRUGMATRIX: Interleukin IL-1 radioligand binding (ligand: [125I] interleukin 1beta). It is filed as cell membranes, Membrane. As to conditions: nih3t3; Not Active = under 50% inhibition at 10 µM.
Assay [3] addresses T1, Cholecystokinin receptor type A (Homo sapiens, UniProt P32238).
T1 sequence (P32238 whole entry): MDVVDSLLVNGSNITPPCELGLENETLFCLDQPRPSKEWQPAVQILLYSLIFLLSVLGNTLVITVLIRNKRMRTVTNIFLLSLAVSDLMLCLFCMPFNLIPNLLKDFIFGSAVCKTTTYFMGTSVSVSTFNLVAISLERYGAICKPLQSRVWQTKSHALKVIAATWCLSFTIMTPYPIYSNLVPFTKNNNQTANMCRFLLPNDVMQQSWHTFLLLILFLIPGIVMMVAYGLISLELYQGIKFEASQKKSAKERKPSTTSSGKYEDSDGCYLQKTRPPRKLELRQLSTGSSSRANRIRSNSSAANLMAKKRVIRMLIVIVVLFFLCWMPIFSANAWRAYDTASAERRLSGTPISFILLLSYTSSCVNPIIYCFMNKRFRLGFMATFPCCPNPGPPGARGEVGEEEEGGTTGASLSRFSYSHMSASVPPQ
It is filed as cell membranes, Membrane. As to conditions: 1321-n1.

The next assay deals with T2, Interstitial collagenase (Homo sapiens, UniProt P03956).
T2 sequence (P03956 whole entry): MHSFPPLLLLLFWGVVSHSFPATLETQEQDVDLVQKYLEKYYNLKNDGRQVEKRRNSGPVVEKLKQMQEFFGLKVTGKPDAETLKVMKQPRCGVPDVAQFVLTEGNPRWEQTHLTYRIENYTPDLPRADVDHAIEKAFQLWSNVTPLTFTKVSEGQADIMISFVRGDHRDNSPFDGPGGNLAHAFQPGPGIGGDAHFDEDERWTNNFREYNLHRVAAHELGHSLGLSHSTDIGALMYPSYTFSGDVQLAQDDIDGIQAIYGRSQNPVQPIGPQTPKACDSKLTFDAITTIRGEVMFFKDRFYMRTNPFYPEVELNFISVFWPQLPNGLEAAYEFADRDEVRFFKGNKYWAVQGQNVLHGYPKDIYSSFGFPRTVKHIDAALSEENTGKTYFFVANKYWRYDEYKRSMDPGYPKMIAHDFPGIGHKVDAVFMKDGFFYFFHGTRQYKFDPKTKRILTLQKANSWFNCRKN
Kind of assay: biochemical. In kind it is tissue-based, Rheumatoid synovial fibroblasts.

Assay [4] deals with T3, Angiotensin-converting enzyme (Oryctolagus cuniculus, UniProt P12822).
T3 sequence (P12822 whole entry): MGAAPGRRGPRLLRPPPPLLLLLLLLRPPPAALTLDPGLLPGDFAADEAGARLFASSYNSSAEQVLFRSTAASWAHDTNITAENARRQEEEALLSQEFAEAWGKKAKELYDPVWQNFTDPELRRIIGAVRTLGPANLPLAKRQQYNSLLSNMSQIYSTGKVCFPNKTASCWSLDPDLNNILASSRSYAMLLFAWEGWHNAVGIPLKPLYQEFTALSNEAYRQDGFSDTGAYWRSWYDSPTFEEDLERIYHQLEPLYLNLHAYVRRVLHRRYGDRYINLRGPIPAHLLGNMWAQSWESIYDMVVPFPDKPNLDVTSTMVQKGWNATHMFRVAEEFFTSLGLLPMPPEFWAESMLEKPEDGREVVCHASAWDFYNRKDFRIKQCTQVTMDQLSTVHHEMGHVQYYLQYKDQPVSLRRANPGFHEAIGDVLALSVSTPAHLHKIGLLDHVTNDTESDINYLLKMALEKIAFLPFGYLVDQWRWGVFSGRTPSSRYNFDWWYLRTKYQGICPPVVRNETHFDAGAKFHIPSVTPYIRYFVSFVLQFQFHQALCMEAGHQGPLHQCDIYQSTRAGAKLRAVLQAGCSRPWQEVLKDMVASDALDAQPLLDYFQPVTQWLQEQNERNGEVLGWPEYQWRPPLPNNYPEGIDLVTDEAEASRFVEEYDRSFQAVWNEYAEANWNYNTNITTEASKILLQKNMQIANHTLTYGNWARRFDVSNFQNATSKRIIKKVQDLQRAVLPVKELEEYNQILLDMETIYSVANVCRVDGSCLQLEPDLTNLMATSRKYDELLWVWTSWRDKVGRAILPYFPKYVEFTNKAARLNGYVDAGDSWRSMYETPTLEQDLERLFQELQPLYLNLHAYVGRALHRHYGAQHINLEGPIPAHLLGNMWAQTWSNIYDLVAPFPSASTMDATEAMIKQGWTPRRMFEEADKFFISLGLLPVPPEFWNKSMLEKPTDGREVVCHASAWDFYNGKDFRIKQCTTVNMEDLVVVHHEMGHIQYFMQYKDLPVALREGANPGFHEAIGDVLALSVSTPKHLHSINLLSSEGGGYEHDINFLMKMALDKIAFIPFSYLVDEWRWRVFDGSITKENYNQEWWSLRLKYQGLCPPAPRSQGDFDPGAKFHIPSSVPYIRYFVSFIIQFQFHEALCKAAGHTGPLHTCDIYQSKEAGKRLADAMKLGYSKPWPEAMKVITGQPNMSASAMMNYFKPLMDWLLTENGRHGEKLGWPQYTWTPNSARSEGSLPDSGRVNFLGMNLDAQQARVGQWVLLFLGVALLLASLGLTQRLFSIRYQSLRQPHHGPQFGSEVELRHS
In kind it is tissue-based, Lung.

For assay [5], the target named is Mitogen-activated protein kinase 14 (Homo sapiens, UniProt Q16539). Set-up: species or system Escherichia coli.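 Also: inhibition of p38alpha enzyme activity in a biochemical kinase assay, with myelin basic protein serving as substrate; in other assays of this panel Not Active means under 50% inhibition at 10 µM.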
Sequence of Mitogen-activated protein kinase 14 (Q16539 whole entry): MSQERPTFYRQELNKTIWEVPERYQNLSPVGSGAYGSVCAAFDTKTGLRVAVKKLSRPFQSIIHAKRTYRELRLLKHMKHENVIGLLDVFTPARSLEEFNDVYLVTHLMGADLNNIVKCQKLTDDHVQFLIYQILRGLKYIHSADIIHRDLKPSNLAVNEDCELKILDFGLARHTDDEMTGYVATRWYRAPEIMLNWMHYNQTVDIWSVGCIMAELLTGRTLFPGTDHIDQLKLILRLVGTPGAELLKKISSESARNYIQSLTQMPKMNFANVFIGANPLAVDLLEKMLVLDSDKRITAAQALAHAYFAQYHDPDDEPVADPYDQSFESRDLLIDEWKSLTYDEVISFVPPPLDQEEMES

Sequence of Tyrosine-protein kinase Fyn (P06241 whole entry): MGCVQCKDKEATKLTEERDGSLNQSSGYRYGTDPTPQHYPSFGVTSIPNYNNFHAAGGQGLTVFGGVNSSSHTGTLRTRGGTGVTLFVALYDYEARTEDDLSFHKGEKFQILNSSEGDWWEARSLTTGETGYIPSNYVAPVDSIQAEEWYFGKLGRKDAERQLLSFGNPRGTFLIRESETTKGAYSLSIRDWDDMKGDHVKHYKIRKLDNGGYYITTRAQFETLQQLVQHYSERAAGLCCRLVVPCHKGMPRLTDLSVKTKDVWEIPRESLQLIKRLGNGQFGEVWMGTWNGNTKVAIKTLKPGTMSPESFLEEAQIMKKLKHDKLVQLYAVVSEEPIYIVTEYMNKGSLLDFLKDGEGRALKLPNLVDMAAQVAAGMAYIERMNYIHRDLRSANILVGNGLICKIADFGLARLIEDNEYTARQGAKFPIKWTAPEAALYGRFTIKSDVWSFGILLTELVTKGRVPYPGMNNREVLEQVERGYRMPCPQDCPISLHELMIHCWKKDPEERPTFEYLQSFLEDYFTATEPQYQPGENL
Sequence of Melanocortin receptor 5 (P33032 whole entry): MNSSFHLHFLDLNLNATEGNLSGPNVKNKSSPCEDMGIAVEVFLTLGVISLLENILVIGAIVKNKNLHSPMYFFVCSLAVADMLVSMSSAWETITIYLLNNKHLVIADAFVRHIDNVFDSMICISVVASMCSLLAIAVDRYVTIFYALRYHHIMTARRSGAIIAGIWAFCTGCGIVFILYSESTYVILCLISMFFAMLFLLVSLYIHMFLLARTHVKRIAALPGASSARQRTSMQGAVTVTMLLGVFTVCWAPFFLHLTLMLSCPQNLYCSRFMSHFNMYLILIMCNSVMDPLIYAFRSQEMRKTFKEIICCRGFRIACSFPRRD

As for `CCOc1nc2cccc(C(=O)O)c2n1Cc1ccc(-c2ccccc2-c2nnn[nH]2)cc1`, the IC50 result (at Melanocortin receptor 5; in assay [1] (insect cells); in assay [2]; in assay [3]; against Interstitial collagenase; in assay [4]) was “Not Active” each time. Moreover, in assay [5], the IC50 result is reported as “Not Active”. Besides, the Ki result in assay [2] is “Not Active”.

As for `O=C(O)CCCc1cccs1`, the IC50 result (against Melanocortin receptor 5; in assay [1] (insect cells); in assay [2]; in assay [3]; on Interstitial collagenase; in assay [4]) was “Not Active” in each case. The IC50 result in assay [5] is “Not Active”. In addition, the Ki entry in assay [2] was “Not Active”.

With `COc1ccccc1N`, the 50% inhibitory concentration (IC50) result (on Melanocortin receptor 5; in assay [1] (insect cells); in assay [2]; in assay [3]; against Interstitial collagenase; in assay [4]) was “Not Active” in each case. Moreover, the IC50 result in assay [5] was “Not Active”. Besides, the Ki result in assay [2] is recorded as “Not Active”.

Regarding `O=C(c1ccccc1F)N1CCC(Cc2ccccc2)CC1`, the half-maximal inhibitory concentration (IC50) result (at Melanocortin receptor 5; in assay [1] (insect cells); in assay [2]; in assay [3]; at Interstitial collagenase; in assay [4]) was “Not Active” throughout. Also, the IC50 in assay [5] (read-out: IC50) worked out at 0.537 µM. For the same compound, the Ki entry in assay [2] is recorded as “Not Active”.

As for `Cc1c(O)cccc1C(=O)N[C@@H](CSc1ccccc1)[C@H](O)CN1C[C@H]2CCCC[C@H]2C[C@H]1C(=O)NC(C)(C)C`, the IC50 result against Melanocortin receptor 5 was “Not Active”; in assay [1] (read-out: IC50) it was 7.97 µM; in assay [2], “Not Active”; in assay [3] it was “Not Active”; against Interstitial collagenase, “Not Active”; in assay [4] it was “Not Active”. For the same compound, in assay [5] (read-out: IC50), the IC50 was found to be 18.2 µM. Further, the Ki result in assay [2] was “Not Active”.

With `CC(O)COC[C@H]1O[C@@H]2O[C@H]3[C@H](O)[C@@H](O)[C@@H](O[C@H]4[C@H](O)[C@@H](O)[C@@H](O[C@H]5[C@H](O)[C@@H](O)[C@@H](O[C@H]6[C@H](O)[C@@H](O)[C@@H](O[C@H]7[C@H](O)[C@@H](O)[C@@H](O[C@H]8[C@H](O)[C@@H](O)[C@@H](O[C@H]1[C@H](O)[C@H]2O)O[C@@H]8COCC(C)O)O[C@@H]7COCC(C)O)O[C@@H]6COCC(C)O)O[C@@H]5COCC(C)O)O[C@@H]4COCC(C)O)O[C@@H]3COCC(C)O` (stereo partly drawn) [2-HYDROXYPROPYL-BETA-CYCLODEXTRIN], the IC50 entry at Melanocortin receptor 5 was “Not Active”; in assay [1] (read-out: IC50) it was 3.04 µM; in assay [2], “Not Active”; in assay [3] it was “Not Active”; on Interstitial collagenase it was “Not Active”; in assay [4], “Not Active”. Further, in assay [5], the IC50 entry is on record as “Not Active”. Also, the Ki result in assay [2] was “Not Active”.

In the case of `NC(=O)c1cccc(N)c1` [3-AMINOBENZAMIDE], the IC50 result (against Melanocortin receptor 5; in assay [1] (insect cells); in assay [2]; in assay [3]; against Interstitial collagenase; in assay [4]) was “Not Active” throughout. Besides, the IC50 result in assay [5] is “Not Active”. For the same compound, the Ki entry in assay [2] is “Not Active”.

Turning to `C[C@H]1O[C@H](O[C@H]2[C@H](O)[C@@H](O)[C@@H](O[C@H]3[C@H](O)[C@@H](O)C(O)O[C@@H]3CO)O[C@@H]2CO)[C@H](O)[C@@H](O)[C@@H]1N[C@H]1C=C(CO)[C@@H](O)[C@H](O)[C@H]1O` (some centres not stated) [ACARBOSE], the IC50 entry (on Melanocortin receptor 5; in assay [1] (insect cells); in assay [2]; in assay [3]; on Interstitial collagenase; in assay [4]) was “Not Active” throughout. In addition, the concentration for half-maximal inhibition (IC50) entry in assay [5] is recorded as “Not Active”. Further, the Ki entry in assay [2] is listed as “Not Active”.

On to `CC[C@H]1[C@@H]2C[C@H]3[C@@H]4N(C)c5ccccc5[C@]45C[C@@H]([C@@H]2[C@H]5O)N3[C@@H]1O` [AJMALINE], for which the IC50 entry (against Melanocortin receptor 5; in assay [1] (insect cells); in assay [2]; in assay [3]; against Interstitial collagenase; in assay [4]) was “Not Active” throughout. The 50% inhibitory concentration (IC50) result in assay [5] is recorded as “Not Active”. In addition, in assay [2], the Ki result is reported as “Not Active”.

Take `NC12CC3CC(CC(C3)C1)C2` [AMANTADINE]: the IC50 entry (on Melanocortin receptor 5; in assay [1] (insect cells); in assay [2]; in assay [3]; at Interstitial collagenase; in assay [4]) was “Not Active” in each case. Further, the IC50 entry in assay [5] is “Not Active”. For the same compound, the Ki result in assay [2] was “Not Active”.

For `NCCCNCCSP(=O)(O)O` [AMIFOSTINE], the IC50 result (on Melanocortin receptor 5; in assay [1] (insect cells); in assay [2]; in assay [3]; against Interstitial collagenase; in assay [4]) was “Not Active” throughout. The IC50 result in assay [5] was “Not Active”. Besides, the Ki result in assay [2] is “Not Active”.

As to `CN(C)CCC=C1c2ccccc2CCc2ccccc21` [AMITRIPTYLINE], the IC50 entry (against Melanocortin receptor 5; in assay [1] (insect cells); in assay [2]; in assay [3]; at Interstitial collagenase; in assay [4]) was “Not Active” in each case. Moreover, the IC50 result in assay [5] is given as “Not Active”. In addition, the Ki result in assay [2] is reported as “Not Active”.

For the compound `CC(=O)Oc1ccccc1C(=O)O` [ASPIRIN], the IC50 result (against Melanocortin receptor 5; in assay [1] (insect cells); in assay [2]; in assay [3]; on Interstitial collagenase; in assay [4]) was “Not Active” each time. For the same compound, the concentration for half-maximal inhibition (IC50) entry in assay [5] is listed as “Not Active”. Besides, in assay [2], the Ki entry is reported as “Not Active”.

As to `CC(C)c1c(C(=O)Nc2ccccc2)c(-c2ccccc2)c(-c2ccc(F)cc2)n1CC[C@@H](O)C[C@@H](O)CC(=O)O` [ATORVASTATIN], the half-maximal inhibitory concentration (IC50) result (at Melanocortin receptor 5; in assay [1] (insect cells); in assay [2]; in assay [3]; against Interstitial collagenase; in assay [4]) was “Not Active” each time. Moreover, the IC50 result in assay [5] is reported as “Not Active”. In assay [2], the Ki result is “Not Active”.
